In the NIST ThermoML archive (doi:10.1016/j.fluid.2016.10.005):

Experiment: molar heat capacity at constant pressure; mn = molality of the nth substance listed, in mol/kg
Conditions: 101 kPa, Liquid, DSC

CCCCCOCCOCCOCCO [ethanol, 2-[2-[2-(pentyloxy)ethoxy]ethoxy]-] + O
molar heat capacity at constant pressure [J/K/mol]
Conditions	278.15 K	283.15 K	288.15 K	293.15 K	298.15 K	308.15 K	318.15 K	328.15 K	333.15 K
m1 = 0.0166	75.93	75.77	75.66	75.59	75.56	75.53	75.56	75.61	75.66
m1 = 0.0321	76.16	76	75.9	75.83	75.8	75.78	75.79	75.85	75.9
m1 = 0.0392	76.27	76.11	76	75.94	75.91	75.89	75.9	75.96	76
m1 = 0.06	76.59	76.43	76.32	76.26	76.22	76.2	76.21	76.27	76.32
m1 = 0.0876	77.01	76.85	76.74	76.68	76.64	76.62	76.63	76.68	76.74
m1 = 0.1214	77.52	77.36	77.26	77.2	77.15	77.13	77.14	77.2	77.24
m1 = 0.1388	77.79	77.63	77.53	77.47	77.42	77.4	77.41	77.47	77.51
m1 = 0.1661	78.19	78.05	77.95	77.9	77.85	77.81	77.85	77.89	77.91
m1 = 0.1861	78.49	78.35	78.26	78.21	78.16	78.12	78.21	78.2	78.21
m1 = 0.2119	78.88	78.75	78.66	78.62	78.57	78.55	78.65	78.59	78.59
m1 = 0.2272	79.1	78.99	78.91	78.86	78.81	78.84	78.89	78.81	78.78
m1 = 0.2499	79.44	79.34	79.27	79.22	79.18	79.27	79.21	79.1	79.08
m1 = 0.2726	79.77	79.7	79.64	79.59	79.56	79.68	79.49	79.36	79.36
m1 = 0.2949	80.1	80.06	80.02	79.97	79.97	80.07	79.75	79.59	79.62
m1 = 0.314	80.39	80.37	80.34	80.32	80.49	80.32	79.96	79.8	79.84
m1 = 0.3353	80.72	80.73	80.72	80.85	80.89	80.6	80.22	80.05	80.1
m1 = 0.3562	81.05	81.08	81.12	81.34	81.24	80.83	80.45	80.3	–
m1 = 0.3851	81.51	81.58	81.77	81.87	81.68	81.19	80.78	80.63	–
m1 = 0.4069	81.92	82.17	82.36	82.27	81.99	81.4	81.01	80.87	–
m1 = 0.426	82.31	82.58	82.73	82.55	82.25	81.62	81.22	81.05	–
m1 = 0.4405	82.64	82.93	82.99	82.77	82.43	81.77	81.37	81.17	–
m1 = 0.4693	83.38	83.6	83.45	83.15	82.79	82.05	81.69	81.49	–
m1 = 0.4858	83.82	83.98	83.71	83.35	82.97	82.23	81.84	81.65	–
m1 = 0.5111	84.48	84.45	84.09	83.67	83.27	82.5	82.12	81.93	–
m1 = 0.5381	85.09	84.88	84.46	84	83.58	82.8	82.41	82.22	82.29
m1 = 0.5586	85.48	85.2	84.75	84.26	83.82	83.04	82.64	82.43	82.51
m1 = 0.5849	85.92	85.58	85.09	84.59	84.14	83.34	82.92	82.72	82.8
m1 = 0.6026	86.2	85.82	85.31	84.76	84.33	83.52	83.11	82.91	83
m1 = 0.6299	86.63	86.13	85.61	85.06	84.6	83.81	83.39	83.19	83.28
m1 = 0.668	87.17	86.57	86.02	85.47	85	84.22	83.79	83.6	83.67
m1 = 0.7037	87.62	86.92	86.38	85.83	85.34	84.59	84.15	83.97	84.02
m1 = 0.731	87.93	87.19	86.64	86.08	85.59	84.86	84.42	84.23	84.3
m1 = 0.7714	88.33	87.59	87	86.43	85.97	85.25	84.81	84.65	84.71
m1 = 0.8141	88.74	88.03	87.41	86.86	86.39	85.68	85.26	85.09	85.14
m1 = 0.8293	88.85	88.14	87.53	86.96	86.5	85.79	85.38	85.24	85.28
m1 = 0.8679	89.21	88.51	87.87	87.32	86.88	86.14	85.78	85.64	85.68
m1 = 0.9125	89.61	88.91	88.26	87.74	87.28	86.56	86.22	86.09	86.13
m1 = 0.9573	90.05	89.36	88.69	88.18	87.71	87	86.71	86.56	86.62
